Tests used:
[1] = Solubilisation of Camptothecin by DOTAP/DOPC liposomes, UV/Vis at 369 nm; assay type: physicochemical; conditions: for concentration of solubilized Camptothecin: 10% trehalose
Procedure: Treated and untreated liposomal formulations were exposed to Camptothecin as described for Paclitaxel in Example 2.1. The concentration of solubilized Camptothecin was determined by UV/Vis-spectroscopy (Beckmann DU 640, Beckmann Coulter, Germany) at 369 nm after dilution in methanol.

[2] = cited from earlier work
[3] = Solubilisation of dry Paclitaxel by empty liposomes, filtration, HPLC quantification
Procedure: The Agilent 1100 Series HPLC System (Agilent Technologies, Palo Alto, Calif., USA) consisted of a quaternary pump, an autosampler, a column thermostat and an on-line degasser. A LiChrospher 60 RP (5 μm, 4×250 mm) analytical column (Merck, Darmstadt, Germany) was used. The flow rate of the mobile phase, consisting of 32% (v/v) acetonitrile, 12% tetrahydrofuran and 56% ammoniumacetat (2 mM in water, pH value set to 4.8 with acetic acid) was set at 1 ml/min.

Row | expected amount of solubilised Paclitaxel ([3]; 100 mM liposome preparation, freeze/thaw treated, extrapolated from solubilisation factor) [mM] | loading capacity of single-lipid liposomes after freezing/thawing ([3]; 100% DOTAP and 100% DOPC liposomes, 10 mM) | solubility of Paclitaxel in liposomal preparations versus liquid formulation without pre-treatment ([3]; DOTAP/DOPC 50/50 10 mM, spray dried, spray freeze-dried, freeze-dried, frozen) | amount of solubilised Paclitaxel, freeze/thawed versus untreated (factor) ([3]; DOTAP/DOPC 50/50, at a given lipid concentration) | concentration of solubilised Paclitaxel (maximum obtained) ([3]; DOTAP/DOPC 50/50 liposomes, 10-35 mM lipid, 10% trehalose, after freezing/thawing, 3 h) | loading capacity, treated versus untreated lipid dispersions (factor) ([3]; DOTAP/DOPC mixtures 25/75, 50/50, 75/25, 10 mM lipid, freeze/thaw) | loading capacity of binary lipid mixtures after freeze/thawing ([3]; DOTAP/DOPC, DOTAP/DSPC, DSTAP/DSPC 50/50) | improvement of loading capacity, untreated versus treated liposomes (factor) ([3]; DOTAP/DSPC 50/50 liposomes, freeze/thaw) | loading at 15 min incubation compared with 3 hour incubation ([3]; freeze-dried, rehydrated DOTAP/DOPC 50/50 liposomes) | solubilised concentration of Paclitaxel ([3]; per 1 mM of untreated DOTAP/DOPC) [µM] | Structure (SMILES) | enhancement of concentration of solubilized agent, pre-treated versus untreated (factor) ([1]; DOTAP/DOPC 50/50 10 mM) | concentration of solubilized Camptothecin ([1]; pre-treated DOTAP/DOPC 50/50 10 mM) [µM] | concentration of solubilized Camptothecin ([1]; untreated DOTAP/DOPC 50/50 10 mM) [µM] | solubility of paclitaxel in a corresponding aqueous buffer ([2]; aqueous buffer without liposomes) | solubility of paclitaxel in water ([2]; water)
1 |  |  |  |  |  |  |  |  |  |  | CC[C@@]1(O)C(=O)OCc2c1cc1n(c2=O)Cc2cc3ccccc3nc2-1 [Camptothecin] | factor of about three | 52 | 18 |  | 
2 | 4 | improved | elevated | about a factor of four higher | up to 1600 μM | about a factor of four higher | substantially improved | 5 | not lower | 10 | CC(=O)O[C@H]1C(=O)[C@@]2(C)[C@H]([C@H](OC(=O)c3ccccc3)[C@]3(O)C[C@H](OC(=O)[C@H](O)[C@@H](NC(=O)c4ccccc4)c4ccccc4)C(C)=C1C3(C)C)[C@]1(OC(C)=O)CO[C@@H]1C[C@@H]2O [Paclitaxel] |  |  |  | below 1 μM | below 1 μg/ml

Reference: patent US20120100067A1, “Solubilisation Method” (MEDIGENE AG, priority 2008, published 2012)
